# Test system: cancer cell line (MDA-MB-231) for triple-negative breast cancer
# Experiment: Cancer Cell Killing Effect Assay 5 (XTT assay)
# Type: cell-based
# Conditions: MDA-MB-231, 24 hours, 37° C., 5% CO2; 3.750 and 7.500 μM; FIG. 6
# Procedure: Cancer Cell Line: Cancer Cell Line (MDA-MB-231) (the G0 Phase) for Triple-Negative Breast Cancer XTT cell proliferation assay kit (manufactured by ATCC) The XTT labeled liquid mixture was adjusted by mixing the XTT reagent (5 ml) and an activation solution (0.1 ml). The cell proliferation assay was conducted in accordance with ATCC's experiment protocol. […] The cancer cell line for the triple-negative breast cancer was cultured by the same method as that of Example 4. RPMI-1640, 10% inactivated bovine serum (GIBCO, USA), and 100 units/ml of penicillin-streptomycin were added to each well (100 μl) of the microplate (for cell proliferation and with 96 holes and a flat bottom) and 3×10^5 cultured cells were seeded. […] The XTT assay was performed by the same method as that of Example 4. The cell survival rate was calculated on the basis of the results of the absorbance measurement and by the method explained in [Cancer Cell Killing Effect Assay 3].
compound,measurement,value
CC(=O)O[C@H]1C(=O)[C@@]2(C)[C@H]([C@H](OC(=O)c3ccccc3)[C@]3(O)C[C@H](OC(=O)[C@H](O)[C@@H](NC(=O)c4ccccc4)c4ccccc4)C(C)=C1C3(C)C)[C@]1(OC(C)=O)CO[C@@H]1C[C@@H]2O [paclitaxel],concentration dependence of reduction of cell survival rate / cell killing effect,concentration-dependent up to a specified concentration
